# Laboratory results reported in patent US12447153B2, “HER2 mutation inhibitors” (Array BioPharma Inc., priority 2021, dated 2025).
# Key:
# ErbB2 WT = ErbB2 WT (Homo sapiens (Human), UniProt P04626); assay: ErbB Enzyme Assay (HTRF KinEASE-TK), Assay 2; type: biochemical
# EGFR = EGFR (Homo sapiens (Human), UniProt P00533); assay: ErbB Enzyme Assay (HTRF KinEASE-TK), Assay 3; type: biochemical
# [1] = target: ErbB2 with Exon 20 YVMA insertion (HER2-YVMA) (Homo sapiens (Human), UniProt P04626, INS775YVMA); assay: Cellular Phosphorylation Assay, Assay 4 (constitutive ErbB2 phosphorylation, NIH 3T3 cells); type: cell-based
# ErbB2 with Exon 20 YVMA insertion (HER2-YVMA), sequence (P04626 other isoform, or with tags, fused parts or gaps ins YVMA behind 775): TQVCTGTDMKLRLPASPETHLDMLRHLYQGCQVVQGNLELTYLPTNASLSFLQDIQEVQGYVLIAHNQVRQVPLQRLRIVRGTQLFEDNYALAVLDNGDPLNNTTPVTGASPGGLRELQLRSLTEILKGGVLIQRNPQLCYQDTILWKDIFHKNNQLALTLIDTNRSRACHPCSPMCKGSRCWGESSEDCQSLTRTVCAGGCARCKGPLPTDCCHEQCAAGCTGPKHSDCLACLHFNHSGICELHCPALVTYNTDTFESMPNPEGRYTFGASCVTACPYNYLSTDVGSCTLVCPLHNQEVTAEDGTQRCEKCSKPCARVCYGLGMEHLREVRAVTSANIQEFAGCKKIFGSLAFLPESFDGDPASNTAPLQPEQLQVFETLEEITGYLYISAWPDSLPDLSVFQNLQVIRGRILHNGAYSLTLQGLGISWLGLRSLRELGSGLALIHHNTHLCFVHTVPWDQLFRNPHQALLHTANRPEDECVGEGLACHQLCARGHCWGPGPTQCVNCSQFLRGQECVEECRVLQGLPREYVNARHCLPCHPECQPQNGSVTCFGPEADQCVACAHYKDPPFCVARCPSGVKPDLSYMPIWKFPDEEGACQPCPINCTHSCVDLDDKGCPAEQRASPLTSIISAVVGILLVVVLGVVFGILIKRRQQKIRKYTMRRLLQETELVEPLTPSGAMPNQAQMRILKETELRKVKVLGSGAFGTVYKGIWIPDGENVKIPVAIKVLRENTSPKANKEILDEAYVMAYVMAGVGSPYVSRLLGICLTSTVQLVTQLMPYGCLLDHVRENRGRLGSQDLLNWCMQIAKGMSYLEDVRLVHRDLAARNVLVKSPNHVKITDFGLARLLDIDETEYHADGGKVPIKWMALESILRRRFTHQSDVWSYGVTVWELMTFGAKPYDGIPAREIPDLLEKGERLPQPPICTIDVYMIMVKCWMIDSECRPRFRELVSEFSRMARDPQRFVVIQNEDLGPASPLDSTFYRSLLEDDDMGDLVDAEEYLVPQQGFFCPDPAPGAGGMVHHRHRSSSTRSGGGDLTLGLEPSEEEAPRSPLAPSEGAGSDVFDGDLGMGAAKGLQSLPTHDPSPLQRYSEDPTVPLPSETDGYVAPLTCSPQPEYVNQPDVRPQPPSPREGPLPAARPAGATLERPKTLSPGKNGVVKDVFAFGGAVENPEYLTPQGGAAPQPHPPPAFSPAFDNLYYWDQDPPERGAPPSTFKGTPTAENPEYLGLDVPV
# EGFR wild type (EGFR WT) = EGFR wild type (EGFR WT) (Homo sapiens (Human), UniProt P00533); assay: Cellular Phosphorylation Assay, Assay 5 (EGF-stimulated EGFR phosphorylation, NIH 3T3 cells); type: cell-based
# EGFR wild type (EGFR WT), sequence (P00533 25-1210): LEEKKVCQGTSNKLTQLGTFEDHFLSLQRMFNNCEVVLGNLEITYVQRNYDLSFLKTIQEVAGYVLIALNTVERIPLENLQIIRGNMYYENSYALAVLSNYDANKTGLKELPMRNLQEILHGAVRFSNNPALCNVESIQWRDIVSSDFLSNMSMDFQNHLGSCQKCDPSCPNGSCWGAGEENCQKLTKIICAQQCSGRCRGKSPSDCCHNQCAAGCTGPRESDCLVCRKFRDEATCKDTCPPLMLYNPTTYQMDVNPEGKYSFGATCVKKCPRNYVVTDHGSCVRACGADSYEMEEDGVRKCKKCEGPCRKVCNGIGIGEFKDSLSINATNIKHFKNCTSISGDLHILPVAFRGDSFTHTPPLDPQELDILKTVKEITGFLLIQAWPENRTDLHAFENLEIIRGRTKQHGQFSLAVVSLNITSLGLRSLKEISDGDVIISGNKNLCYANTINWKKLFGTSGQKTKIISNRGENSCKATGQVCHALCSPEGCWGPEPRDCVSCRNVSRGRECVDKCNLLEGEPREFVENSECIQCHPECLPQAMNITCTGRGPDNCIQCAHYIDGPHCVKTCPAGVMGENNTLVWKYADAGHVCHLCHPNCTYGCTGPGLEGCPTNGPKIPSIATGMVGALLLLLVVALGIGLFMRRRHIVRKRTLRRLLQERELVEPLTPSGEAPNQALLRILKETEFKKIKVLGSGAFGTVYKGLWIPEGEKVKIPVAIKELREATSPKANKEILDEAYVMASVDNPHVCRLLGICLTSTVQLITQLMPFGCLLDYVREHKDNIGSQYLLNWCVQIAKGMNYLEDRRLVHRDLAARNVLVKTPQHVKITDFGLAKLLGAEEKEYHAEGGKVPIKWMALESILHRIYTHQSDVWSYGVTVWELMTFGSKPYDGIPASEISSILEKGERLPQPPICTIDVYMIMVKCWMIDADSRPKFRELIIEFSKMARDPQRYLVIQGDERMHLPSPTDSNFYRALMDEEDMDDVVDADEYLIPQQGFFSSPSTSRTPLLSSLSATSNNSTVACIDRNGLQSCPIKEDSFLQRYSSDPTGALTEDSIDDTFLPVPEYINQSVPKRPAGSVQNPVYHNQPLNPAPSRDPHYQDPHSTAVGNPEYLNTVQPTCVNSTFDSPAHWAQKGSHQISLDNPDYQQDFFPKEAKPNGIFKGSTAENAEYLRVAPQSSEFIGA
# BCRP [2] = assay: BCRP MDCKII efflux assay (Assay 7); type: in vitro ADME; conditions: dog; efflux ratio Papp(B-A)/Papp(A-B), BCRP MDCKII cells; read-out: Assay 7 Pe Ratio
# Method: (§1) Assay conditions included with and without the BCRP-specific inhibitor, KO143, at a concentration of 0.3 μM to ascertain the contribution of BCRP to the efflux value of the test compound.
# (§2) Final organic concentration in the assay was 1%.
# MDR1 (P-gp) = MDR1 (P-gp) (Homo sapiens (Human), UniProt P08183); assay: in vitro; conditions: pig, LLC-PK1
# Method: Both LLC-PK1 and MDR1 transfected LLC-PK1 cells were cultured and plated according to manufacturer's recommendations with the exception that the passage media contained only 2% fetal bovine serum so as to extend passage time out to seven days.
# Both positive and negative controls were used to assess functionality of P-gp or BCRP efflux in the assays. Stock solutions for assay controls and the test article were prepared in DMSO for final test concentrations of 10 μM and 1 μM, respectively. Final organic concentration in the assay was 1%. All dosing solutions contained 10 μM lucifer yellow to monitor LLC PK1 or MDCKII cell monolayer integrity.
# For the apical to basolateral determination (A to B), 75 μL of the test article in transport buffer were added to the apical side of the individual transwells and 250 μL of basolateral media, without compound or lucifer yellow, were added to each well. For the basolateral to apical determination (B to A), 250 μL of test article in transport buffer were added to each well and 75 μL transport buffer, without compound or lucifer yellow, were added to each transwell. All tests were performed in triplicate, and each compound was tested for both apical to basolateral and basolateral to apical transport. The plates were incubated for 2 hours on a Lab-Line Instruments Titer Orbital Shaker (VWR, West Chester, PA) at 50 rpm and 37° C. with 5% CO2. All culture plates were removed from the incubator, 50 μL of media were removed from the apical and basolateral portion of each well, and added to 150 μL of 1 μM labetalol in 2:1 acetonitrile (ACN): H2O, v/v.
# The plates were read using a Molecular Devices (Sunnyvale, CA) Gemini Fluorometer to evaluate the lucifer yellow concentrations at excitation/emission wavelengths of 425/535 nm. These values were accepted when found to be below 2% for apical to basolateral and 5% basolateral to apical flux across the MDR1-transfected LLC-PK1 or BCRP-transfected MDCKII cell monolayers. The plates were sealed, and the contents of each well analyzed by LC MS/MS. The compound concentrations were determined from the ratio of the peak areas of the compound to the internal standard (labetalol) in comparison to the dosing solution.
# The LC-MS/MS system was comprised of an HTS-PAL autosampler (Leap Technologies, Carrboro, NC), an HP1200 HPLC (Agilent, Palo Alto, CA), and a MDS Sciex 4000 Q Trap system (Applied Biosystems, Foster City, CA). […] The total run time, including re-equilibration, for a single injection was 1.2 minutes. Mass spectrometric detection of the analytes was accomplished using the ion spray positive mode. Analyte responses were measured by multiple reaction monitoring (MRM) of transitions unique to each compound (the protonated precursor ion and selected product ions for each test article and m/z 329 to m/z 162 for labetalol, the internal standard).
# An efflux ratio is calculated from the mean apical to basolateral (A-B) Papp data and basolateral to apical (B-A) Papp data: Efflux ratio=Papp(B−A)/Papp(A−B)
# BCRP [3] = target: BCRP (Homo sapiens (Human), UniProt Q9UNQ0); assay: BCRP MDCKII efflux assay (Assay 7); type: in vitro ADME; conditions: dog; efflux ratio Papp(B-A)/Papp(A-B), BCRP MDCKII cells; read-out: Assay 7 Pe Ratio
# BCRP (Homo sapiens (Human), UniProt Q9UNQ0), sequence (Q9UNQ0 whole entry): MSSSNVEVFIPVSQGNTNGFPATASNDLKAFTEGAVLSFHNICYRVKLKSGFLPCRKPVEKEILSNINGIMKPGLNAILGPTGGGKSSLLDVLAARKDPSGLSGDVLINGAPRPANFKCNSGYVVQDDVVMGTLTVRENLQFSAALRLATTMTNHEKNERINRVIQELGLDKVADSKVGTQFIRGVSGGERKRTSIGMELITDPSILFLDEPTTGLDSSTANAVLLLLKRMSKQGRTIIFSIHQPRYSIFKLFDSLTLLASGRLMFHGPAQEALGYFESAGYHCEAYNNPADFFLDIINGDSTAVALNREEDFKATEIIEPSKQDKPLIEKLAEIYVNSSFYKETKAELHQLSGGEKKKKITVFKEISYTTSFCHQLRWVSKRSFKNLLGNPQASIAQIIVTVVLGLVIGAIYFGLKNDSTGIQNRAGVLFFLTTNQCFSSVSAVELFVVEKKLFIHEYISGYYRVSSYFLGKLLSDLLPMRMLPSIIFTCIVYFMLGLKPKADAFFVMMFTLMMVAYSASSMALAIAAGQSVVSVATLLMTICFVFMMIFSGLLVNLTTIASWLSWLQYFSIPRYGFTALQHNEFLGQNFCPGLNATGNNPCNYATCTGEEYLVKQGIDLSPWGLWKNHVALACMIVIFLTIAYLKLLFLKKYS
# Method: as §1, §2
# [4] = EGF-stimulated EGFR WT phosphorylation
# [5] = cellular ErbB2 YVMA phosphorylation
# [6] = cellular EGFR WT phosphorylation, EGF-stimulated
# EGFR, sequence (P00533 25-1210): as the sequence (P00533 25-1210) above
Compound,IC50 (ErbB2 WT; ErbB2 WT enzyme),IC50 (EGFR; EGFR enzyme),IC50 ([1]; ErbB2 YVMA phosphorylation),IC50 (EGFR wild type (EGFR WT); [4]),"efflux ratio at 2 h, 1 µM (BCRP [2])","efflux ratio at 2 h, 1 µM (MDR1 (P-gp))",IC50 (ErbB2 WT; ErbB2 WT enzyme assay),IC50 (EGFR; EGFR enzyme assay),"IC50 [1, 5]",IC50 (EGFR wild type (EGFR WT); [6]),"efflux ratio at 2 h, 1 µM (BCRP [3])"
"C=CC(=O)N1CCC[C@@H](c2ccc3ncnc(Nc4ccc(Oc5ccc6c(c5)ncn6C)c(C)c4F)c3n2)C1 (racemic) [Example 144, rac-(R)-1-(3-(4-((2-fluoro-3-methyl-4-((1-methyl-1H-benzo[d]imidazol-5-yl)oxy)phenyl)amino)pyrido[3,2-d]pyrimidin-6-yl)piperidin-1-yl)prop-2-en-1-one]",25 nM,650 nM,11.7 nM,1070 nM,0.6,1.2,–,–,–,–,–
"C=CC(=O)N1C[C@@H]2C[C@H]1C[C@H]2c1ccc2ncnc(Nc3ccc(Oc4ccc5c(c4)ncn5C)c(C)c3F)c2n1 (racemic) [Example 203, rac-1-((1S,4R,5R)-5-(4-((2-fluoro-3-methyl-4-((1-methyl-1H-benzo[d]imidazol-5-yl)oxy)phenyl)amino)pyrido[3,2-d]pyrimidin-6-yl)-2-azabicyclo[2.2.1]heptan-2-yl)prop-2-en-1-one]",13.3 nM,401 nM,16.7 nM,1450 nM,0.6,1.1,–,–,–,–,–
C=CC(=O)N1CCN(c2ccc3ncnc(Nc4cc(C)c(Oc5ccn6ncnc6c5)cc4F)c3n2)CC12CC2 [Example 337],–,–,–,–,–,1.4,13 nM,362 nM,8.2 nM,417 nM,3.6
C=CC(=O)N1CCN(c2ccc3ncnc(Nc4cc(C)c(Oc5cnc6c(c5)ncn6C)cc4F)c3n2)C[C@@H]1C1CC1 [Example 355],–,–,–,–,–,1.5,158 nM,≥ 10000 nM,28.5 nM,≥ 5000 nM,7.2
C=CC(=O)N1CCN(c2ccc3ncnc(Nc4cc(C)c(Oc5cnc6c(c5)ncn6C)cc4F)c3n2)C[C@H]1C1CC1 [Example 356],–,–,–,–,–,0.9,234 nM,≥ 10000 nM,27.1 nM,≥ 5000 nM,4.8
C=CC(=O)N1CCN(c2ccc3ncnc(Nc4cc(C)c(Oc5cnc6c(c5)ncn6C)cc4F)c3n2)CC1(C)C [Example 357],–,–,–,–,–,1.6,122 nM,5050 nM,17.1 nM,≥ 5000 nM,6.2
C=CC(=O)N1CCC12CN(c1ccc3ncnc(Nc4cc(C)c(Oc5ccn6ncnc6c5)cc4F)c3n1)C2 [Example 361],–,–,–,–,–,2.9,33.6 nM,908 nM,8 nM,760 nM,2.3
C=CC(=O)N1CCCC(c2ccc3ncnc(Nc4cc(C)c(Oc5ccn6ncnc6c5)cc4F)c3n2)CC1 (stereo not drawn) [Example 368],–,–,–,–,–,1.4,76.1 nM,9630 nM,34.7 nM,≥ 5000 nM,2.7
C=CC(=O)N1[C@@H]2CC[C@H]1CC(c1ccc3ncnc(Nc4ccc(Oc5ccn6ncnc6c5)c(C)c4F)c3n1)C2 (stereo partly drawn) [Example 369],–,–,–,–,–,1.1,67.1 nM,2480 nM,22.4 nM,1360 nM,4.3
C=CC(=O)N1C[C@@H]2C[C@H](c3ccc4ncnc(Nc5cc(C)c(Oc6ccc7c(c6)ncn7C)cc5F)c4n3)C[C@H]1C2 [Example 388],–,–,–,–,–,3.2,40.7 nM,1800 nM,28.1 nM,1700 nM,1.8
C=CC(=O)N1[C@@H]2CC[C@H]1[C@H](c1ccc3ncnc(Nc4cc(C)c(Oc5ccc6c(c5)ncn6C)cc4F)c3n1)C2 [Example 393],–,–,–,–,–,1.8,13.4 nM,715 nM,15.4 nM,≥ 5000 nM,2.2
C=CC(=O)N1[C@@H]2CC[C@H]1[C@H](c1ccc3ncnc(Nc4ccc(Oc5ccc6c(c5)ncn6C)c(C)c4F)c3n1)C2 [Example 394],–,–,–,–,–,2.6,11.4 nM,252 nM,10.7 nM,≥ 5000 nM,1.8
C=CC(=O)N1CCCC(c2ccc3ncnc(Nc4ccc(Oc5ccn6ncnc6c5)c(C)c4)c3n2)CC1 (stereo not drawn) [Example 401],–,–,–,–,–,1.5,9.2 nM,2720 nM,30 nM,≥ 5000 nM,5.5
C=CC(=O)N1CCCC(c2ccc3ncnc(Nc4ccc(Oc5cnc6c(c5)ncn6C)c(C)c4)c3n2)CC1 (stereo not drawn) [Example 403],–,–,–,–,–,2,61.3 nM,1290 nM,13.4 nM,≥ 5000 nM,4
C=CC(=O)N1[C@@H]2CC[C@H]1[C@H](c1ccc3ncnc(Nc4ccc(Oc5ccn6ncnc6c5)c(Cl)c4F)c3n1)C2 [Example 404],–,–,–,–,–,1.2,7.2 nM,104 nM,11.5 nM,≥ 5000 nM,5.2
C=CC(=O)N1C[C@H]2C[C@@H]1[C@H](c1ccc3ncnc(Nc4ccc(Oc5ccn6ncnc6c5)c(Cl)c4F)c3n1)C2 [Example 406],–,–,–,–,–,0.9,8.7 nM,336 nM,9.3 nM,737 nM,4.3
C=CC(=O)N1[C@@H]2CC[C@H]1[C@H](c1ccc3ncnc(Nc4ccc(Oc5cnc6c(c5)ncn6C)c(C)c4)c3n1)C2 [Example 408],–,–,–,–,–,1.1,32 nM,498 nM,23.7 nM,≥ 5000 nM,2.2
C=CC(=O)N1CCCC(c2ccc3ncnc(Nc4cc(C)c(Oc5cnc6c(c5)ncn6C)cc4F)c3n2)CC1 (stereo not drawn) [Example 412],–,–,–,–,–,1.6,206 nM,≥ 10000 nM,29.2 nM,≥ 5000 nM,3
C=CC(=O)N1CCCC(c2ccc3ncnc(Nc4ccc(Oc5cnc6c(c5)ncn6C)c(C)c4F)c3n2)CC1 (stereo not drawn) [Example 413],–,–,–,–,–,1,78.6 nM,2220 nM,24.6 nM,≥ 5000 nM,2
C=CC(=O)N1[C@@H]2CCC[C@H]1[C@@H](c1ccc3ncnc(Nc4ccc(Oc5ccn6ncnc6c5)c(C)c4F)c3n1)C2 [Example 415],–,–,–,–,–,1,9.8 nM,247 nM,32 nM,≥ 5000 nM,1.8
C=CC(=O)N1C[C@H]2C[C@@H]1[C@H](c1ccc3ncnc(Nc4cc(C)c(Oc5cnc6c(c5)ncn6C)cc4F)c3n1)C2 [Example 416],–,–,–,–,–,0.9,79.5 nM,2710 nM,36.6 nM,≥ 5000 nM,2
C=CC(=O)N1[C@@H]2CC[C@H]1[C@H](c1ccc3ncnc(Nc4ccc(Oc5cnc6c(c5)ncn6C)c(C)c4F)c3n1)C2 [Example 419],–,–,–,–,–,0.8,42.3 nM,1040 nM,21.5 nM,≥ 5000 nM,2.2
C=CC(=O)N1C[C@H]2CC[C@@H]1[C@H](c1ccc3ncnc(Nc4ccc(Oc5cnc6c(c5)ncn6C)c(C)c4F)c3n1)C2 [Example 426],–,–,–,–,–,0.7,183 nM,≥ 10000 nM,33.2 nM,≥ 5000 nM,2
C=CC(=O)N1CCN(c2ccc3ncnc(Nc4ccc(Oc5cnc6c(c5)ncn6C)c(C)c4F)c3n2)C[C@H]1C [Example 433],–,–,–,–,–,1.1,101 nM,4830 nM,9.4 nM,2890 nM,3.8
C=CC(=O)N1CC2CC(C1)N2c1ccc2ncnc(Nc3ccc(Oc4cnc5c(c4)ncn5C)c(C)c3F)c2n1 [Example 435],–,–,–,–,–,1.5,314 nM,587 nM,16 nM,1140 nM,2
C=CC(=O)N1[C@H](C)CN(c2ccc3ncnc(Nc4ccc(Oc5cnc6c(c5)ncn6C)c(C)c4F)c3n2)C[C@@H]1C [Example 442],–,–,–,–,–,1,464 nM,≥ 10000 nM,29.7 nM,≥ 5000 nM,1.9
C=CC(=O)N1CC2CCC(C1)N2c1ccc2ncnc(Nc3cc(C)c(Oc4ccn5ncnc5c4)cc3F)c2n1 [Example 454],–,–,–,–,0.6,0.8,35.6 nM,1180 nM,14.1 nM,680 nM,–
